Assay results published in patent US20090104196A1, “Antibodies For Use in Identifying and/or Scoring Prostate Cancer and Androgen Receptor-Dependent Gene Expression Control” (priority 2005, published 2009).
“Also recorded” adds a separate entry of the source.

Legend:
[1] = tested on: LSD1-induced activation of AR; experiment: Transient transfection AR-dependent luciferase reporter assay in 293 cells (LSD1 + AR co-expression); assay type: cell-based; details: R1881, 3×10^−3 M pargyline, 1×10^−3 M deprenyl, or 1×10^−4 M clorgyline for 18 hours, FIG. 4c
Method: (§1) 293 and CV-1 cells were cultured and transfected as described^12. LNCaP cells were cultured in phenol-red-free RPMI1640 supplemented with 10% double-stripped fetal calf serum (dsFCS) and transfected with Effectene (Qiagen). The following amounts per well were used: MMTV-LUC, ARE2X-TATA-LUC, ARE2X-TK-LUC, TK-LUC, TREp-LUC, β-RE-LUC, ERE2X-TATA-LUC, PSA-LUC, Slp-ARU-TATA-LUC 500 ng each, 25 ng expression plasmids for AR, PR, ERα, RARα, and TRβ; 500 to 700 ng expression plasmids for LSD1 1-174, LSD1 175-246, LSD1 247-852, LSD1Δ281-360, LSD1ΔAO, pSUPER-control, and pSUPER-LSD1; 100 to 700 ng expression plasmids for LSD1 were transfected per well. […] Luciferase activity was assayed as described^9. All experiments were repeated at least five times in duplicate.

[2] = biological target: T1, LSD1 (Homo sapiens, UniProt O60341); experiment: Chromatin immunoprecipitation (ChIP) of histone methylation marks at the PSA promoter in LNCaP cells; assay type: cell-based
T1 construct: endogenous in cells; host or cells: LNCaP cells
Method: ChIP experiments were performed essentially as described^14. […] LNCaP cells were transfected three days before harvesting for ChIP with or without siRNA (Qiagen) following the manufacture's instructions. Immunoprecipitation was performed with specific antibodies (α-monoMeK9H3, α-diMeK9H3, α-triMeK9H3, α-monoMeK4H3, α-diMeK4H3, α-triMeK4H3, α-H3 (abcam), α-LSD1, and α-AR PG21 (Upstate Biotechnology) on GammaBind TMSepharose 4B (GE-Healthcare). For PCR, 1-5 μl out of 50 μl DNA extract was used. For Re-ChIP assays, immunoprecipitations were sequentially washed with TSE I, TSE II, buffer III, and TE^14. Complexes were eluted by incubation with 10 mM DTT at 37° C. for 30 min, diluted 50 times with dilution buffer^14 followed by a second immunoprecipitation with the indicated antibody. Primer sequences were as follows: exon 4, PSA (+3909/+4067) 5′-[…]-3′ and 5′-[…]-3′; middle, PSA (−2223/−1951) 5′-[…]-3′ and 5′-[…]-3′; PCR primers for ARE I+II (PSA (−459/−121)) and ARE III (PSA ([…])), GAPDH, and U6 have been previously described^7, 15, 16.

[3] = tested on: other nuclear receptors (PR, ERα, RARα, TRβ); experiment: Reporter assays for other nuclear hormone receptors in 293 cells; assay type: cell-based; details: pargyline, FIG. 10k
Method: as §1

[4] = tested on: PSA gene; experiment: qRT-PCR of endogenous PSA gene expression in LNCaP cells; assay type: cell-based, human; details: pargyline, FIG. 4d
Method: DNAsel-treated RNA isolated using RNAwiz (Ambion) was used for reverse transcription. Quantitative PCR was performed in an ABI PRISM 7700 sequence detector. Product formation was detected by incorporation of SYBR Green I using ROX as a passive reference (ABgene). The expression ratios of the analyzed cDNAs were related to the normalized Cp of the housekeeping gene GAPDH in control and sample. The following primers were used: GAPDH: 5′-[…]-3′; 5′-[…]-3′; PSA: 5′-[…]-3′; 5′-[…]-3′. Statistical analysis for qPCR was performed by group-wise comparison based on PCR efficiencies and the mean crossing point deviation between sample and control group using Relative Expression Software Tool^19. Experiments were repeated and analysed three times.

[5] = R1881, PSA promoter, pargyline, FIG. 8

Compound | LSD1-induced activation of AR [1] | demethylation of mono- and dimethyl H3-K9 during androgen-induced transcription ([2]; R1881, PSA promoter (ARE I+II), pargyline 18 hours, FIG. 3b) | methylation levels of trimethyl H3-K9 ([2]; R1881, PSA promoter, pargyline, FIG. 3b) | methylation status of H3-K27 [2, 5] | methylation status of H4-K20 [2, 5] | methylation of histone H3 at lysine 4 (H3-K4) ([2]; in vivo ChIP, pargyline, FIG. 3b) | activity of other nuclear receptors [3] | androgen-induced expression of the endogenous PSA gene [4] | androgen-induced expression of the endogenous PSA gene ([4]; listed as Pargyline)
C#CCN(C)[C@H](C)Cc1ccccc1 [deprenyl, (R)-(−)-N,2-dimethyl-N-2-propynylphenethylamine] | severely impair | – | – | – | – | – | – | – | –
C#CCN(C)CCCOc1ccc(Cl)cc1Cl [clorgyline, N-methyl-N-propargyl-3-(2,4-dichlorophenoxy-)propylamine] | severely impair | – | – | – | – | – | – | – | –
C#CCN(C)Cc1ccccc1 [pargyline, N-methyl-N-2-propynylbenzylamine] | severely impair | blocks | remain unchanged | remain unchanged | remain unchanged | not influenced | does not influence; also recorded: fails to block | blocks | reduces
